The values that follow are results of earlier work, collected in PMC12239574 (mBio, 2025).

Molecules are shown by their SMILES.

The data set has as its system SARS-CoV-2 with M^pro E166V.

For `Cn1cnc(Cn2c(=O)[nH]/c(=N\c3cc4cn(C)nc4cc3Cl)n(Cc3cc(F)c(F)cc3F)c2=O)n1` [ensitrelvir], the “fold increase in the antiviral EC50 relative to the wild-type virus” value is reported as 23 fold.

On to `CC(C)(C)[C@H](NC(=O)C(F)(F)F)C(=O)N1C[C@H]2[C@@H]([C@H]1C(=O)N[C@H](C#N)C[C@@H]1CCNC1=O)C2(C)C` [nirmatrelvir], for which the “fold increase in the antiviral EC50 relative to the wild-type virus” value was 100 fold.
